How the values were obtained:
Type in all cases: functional
Settings in all cases: read-out: GI
NCI-H522 = experiment: Growth inhibition of human NCI-H522 cells at 10 uM incubated for 48 hrs by sulforhodamine B assay relative to control
TK-10 = experiment: Growth inhibition of human TK-10 cells at 10 uM incubated for 48 hrs by sulforhodamine B assay relative to control
ACHN = experiment: Growth inhibition of human ACHN cells at 10 uM incubated for 48 hrs by sulforhodamine B assay relative to control
SK-MEL-5 = experiment: Growth inhibition of human SK-MEL-5 cells at 10 uM incubated for 48 hrs by sulforhodamine B assay relative to control
NCI-H460 = experiment: Growth inhibition of human NCI-H460 cells at 10 uM incubated for 48 hrs by sulforhodamine B assay relative to control
IGROV-1 = experiment: Growth inhibition of human IGROV-1 cells at 10 uM incubated for 48 hrs by sulforhodamine B assay relative to control
NCI-H23 = experiment: Growth inhibition of human NCI-H23 cells at 10 uM incubated for 48 hrs by sulforhodamine B assay relative to control
HCT-116 = experiment: Growth inhibition of human HCT-116 cells at 10 uM incubated for 48 hrs by sulforhodamine B assay relative to control
MDA-MB-435 = experiment: Growth inhibition of human MDA-MB-435 cells at 10 uM incubated for 48 hrs by sulforhodamine B assay relative to control
M14 = experiment: Growth inhibition of human M14 cells at 10 uM incubated for 48 hrs by sulforhodamine B assay relative to control
RXF 393 = experiment: Growth inhibition of human RXF 393 cells at 10 uM incubated for 48 hrs by sulforhodamine B assay relative to control
A549 = experiment: Growth inhibition of human A549/ATCC cells at 10 uM incubated for 48 hrs by sulforhodamine B assay relative to control
SR = experiment: Growth inhibition of human SR cells at 10 uM incubated for 48 hrs by sulforhodamine B assay relative to control
LOX IMVI = experiment: Growth inhibition of human LOX IMVI cells at 10 uM incubated for 48 hrs by sulforhodamine B assay relative to control
SF-295 = experiment: Growth inhibition of human SF-295 cells at 10 uM incubated for 48 hrs by sulforhodamine B assay relative to control
NCI-H322M = experiment: Growth inhibition of human NCI-H322M cells at 10 uM incubated for 48 hrs by sulforhodamine B assay relative to control
U-251 = experiment: Growth inhibition of human U-251 cells at 10 uM incubated for 48 hrs by sulforhodamine B assay relative to control
786-0 = experiment: Growth inhibition of human 786-0 cells at 10 uM incubated for 48 hrs by sulforhodamine B assay relative to control
MCF7 = experiment: Growth inhibition of human MCF7 cells at 10 uM incubated for 48 hrs by sulforhodamine B assay relative to control
HL-60(TB) = experiment: Growth inhibition of human HL-60(TB) cells at 10 uM incubated for 48 hrs by sulforhodamine B assay relative to control
DU-145 = experiment: Growth inhibition of human DU-145 cells at 10 uM incubated for 48 hrs by sulforhodamine B assay relative to control
PC-3 = experiment: Growth inhibition of human PC-3 cells at 10 uM incubated for 48 hrs by sulforhodamine B assay relative to control
OVCAR-8 = experiment: Growth inhibition of human OVCAR-8 cells at 10 uM incubated for 48 hrs by sulforhodamine B assay relative to control
OVCAR-4 = experiment: Growth inhibition of human OVCAR-4 cells at 10 uM incubated for 48 hrs by sulforhodamine B assay relative to control
KM12 = experiment: Growth inhibition of human KM12 cells at 10 uM incubated for 48 hrs by sulforhodamine B assay relative to control
OVCAR-3 = experiment: Growth inhibition of human OVCAR-3 cells at 10 uM incubated for 48 hrs by sulforhodamine B assay relative to control
MDA-MB-468 = experiment: Growth inhibition of human MDA-MB-468 cells at 10 uM incubated for 48 hrs by sulforhodamine B assay relative to control
NCI/ADR-RES = experiment: Growth inhibition of human NCI/ADR-RES cells at 10 uM incubated for 48 hrs by sulforhodamine B assay relative to control
BT-549 = experiment: Growth inhibition of human BT-549 cells at 10 uM incubated for 48 hrs by sulforhodamine B assay relative to control
CAKI-1 = experiment: Growth inhibition of human CAKI-1 cells at 10 uM incubated for 48 hrs by sulforhodamine B assay relative to control
UACC-62 = experiment: Growth inhibition of human UACC-62 cells at 10 uM incubated for 48 hrs by sulforhodamine B assay relative to control
MDA-MB-231 = experiment: Growth inhibition of human MDA-MB-231 cells at 10 uM incubated for 48 hrs by sulforhodamine B assay relative to control
NCI-H226 = experiment: Growth inhibition of human NCI-H226 cells at 10 uM incubated for 48 hrs by sulforhodamine B assay relative to control
CCRF-CEM = experiment: Growth inhibition of human CCRF-CEM cells at 10 uM incubated for 48 hrs by sulforhodamine B assay relative to control
SF-539 = experiment: Growth inhibition of human SF-539 cells at 10 uM incubated for 48 hrs by sulforhodamine B assay relative to control
HOP-62 = experiment: Growth inhibition of human HOP-62 cells at 10 uM incubated for 48 hrs by sulforhodamine B assay relative to control
MOLT-4 = experiment: Growth inhibition of human MOLT-4 cells at 10 uM incubated for 48 hrs by sulforhodamine B assay relative to control
Hs-578T = experiment: Growth inhibition of human Hs-578T cells at 10 uM incubated for 48 hrs by sulforhodamine B assay relative to control
SK-OV-3 = experiment: Growth inhibition of human SK-OV-3 cells at 10 uM incubated for 48 hrs by sulforhodamine B assay relative to control
K562 = experiment: Growth inhibition of human K562 cells at 10 uM incubated for 48 hrs by sulforhodamine B assay relative to control
HT-29 = experiment: Growth inhibition of human HT-29 cells at 10 uM incubated for 48 hrs by sulforhodamine B assay relative to control
UO-31 = experiment: Growth inhibition of human UO-31 cells at 10 uM incubated for 48 hrs by sulforhodamine B assay relative to control
SN12C = experiment: Growth inhibition of human SN12C cells at 10 uM incubated for 48 hrs by sulforhodamine B assay relative to control
COLO 205 = experiment: Growth inhibition of human COLO 205 cells at 10 uM incubated for 48 hrs by sulforhodamine B assay relative to control

Work on `O=C(CNC1CCCCC1)Nc1ccc(-c2nc3ccccc3s2)cc1` yielded an inhibition of growth at 10 µM (NCI-H522) of 4.54%, an inhibition of growth at 10 µM (TK-10) of -2.86% and an inhibition of growth at 10 µM (ACHN) of 0.89%. It also gave an inhibition of growth at 10 µM (SK-MEL-5) of 9.16%, an inhibition of growth at 10 µM (NCI-H460) of 8.69% and an inhibition of growth at 10 µM (IGROV-1) of -0.35%. It also gave an inhibition of growth at 10 µM (NCI-H23) of 23.8%, an inhibition of growth at 10 µM (HCT-116) of 23% and an inhibition of growth at 10 µM (MDA-MB-435) of 9.63%. The inhibition of growth at 10 µM (M14) was 10.6%, the inhibition of growth at 10 µM (RXF 393) was 31.5% and the inhibition of growth at 10 µM (A549) was 12%. For the same compound, the inhibition of growth at 10 µM (SR) was 90.3%, the inhibition of growth at 10 µM (LOX IMVI) was 26.1% and the inhibition of growth at 10 µM (SF-295) was 14.1%. For the same compound, the inhibition of growth at 10 µM (NCI-H322M) was 8.27%, the inhibition of growth at 10 µM (U-251) was 34.9% and the inhibition of growth at 10 µM (786-0) was 29.4%. It also gave an inhibition of growth at 10 µM (MCF7) of 72%, an inhibition of growth at 10 µM (HL-60(TB)) of 33.2% and an inhibition of growth at 10 µM (DU-145) of 10.7%. The inhibition of growth at 10 µM (PC-3) was 20.3%, the inhibition of growth at 10 µM (OVCAR-8) was 0.73% and the inhibition of growth at 10 µM (OVCAR-4) was 15.6%. The inhibition of growth at 10 µM (KM12) was 16.1%, the inhibition of growth at 10 µM (OVCAR-3) was 5.98% and the inhibition of growth at 10 µM (MDA-MB-468) was 64.1%. The inhibition of growth at 10 µM (NCI/ADR-RES) was 11%, the inhibition of growth at 10 µM (BT-549) was 12.4% and the inhibition of growth at 10 µM (CAKI-1) was 14%. The inhibition of growth at 10 µM (UACC-62) was 3.76%, the inhibition of growth at 10 µM (MDA-MB-231) was 53.8% and the inhibition of growth at 10 µM (NCI-H226) was 19.7%. For the same compound, the inhibition of growth at 10 µM (CCRF-CEM) was 22.7%, the inhibition of growth at 10 µM (SF-539) was 12.5% and the inhibition of growth at 10 µM (HOP-62) was 14.8%. For the same compound, the inhibition of growth at 10 µM (MOLT-4) was 45.9%, the inhibition of growth at 10 µM (Hs-578T) was 15.8% and the inhibition of growth at 10 µM (SK-OV-3) was 9.23%. It also gave an inhibition of growth at 10 µM (K562) of 50.5%, an inhibition of growth at 10 µM (HT-29) of 37.7% and an inhibition of growth at 10 µM (UO-31) of 43.5%. For the same compound, the inhibition of growth at 10 µM (SN12C) was 13.3% and the inhibition of growth at 10 µM (COLO 205) was 4.58%.
For `O=C(CNCc1ccccc1)Nc1ccc(-c2nc3ccccc3s2)cc1`, the inhibition of growth at 10 µM (NCI-H522) was 9.64%, the inhibition of growth at 10 µM (TK-10) was -12% and the inhibition of growth at 10 µM (ACHN) was 0.1%. It also gave an inhibition of growth at 10 µM (SK-MEL-5) of 5.63%, an inhibition of growth at 10 µM (NCI-H460) of 3.57% and an inhibition of growth at 10 µM (IGROV-1) of -2.9%. For the same compound, the inhibition of growth at 10 µM (NCI-H23) was 9.23%, the inhibition of growth at 10 µM (HCT-116) was 5.15% and the inhibition of growth at 10 µM (MDA-MB-435) was 4.91%. It also gave an inhibition of growth at 10 µM (M14) of 3.6%, an inhibition of growth at 10 µM (RXF 393) of -3.76% and an inhibition of growth at 10 µM (A549) of 22.7%. For the same compound, the inhibition of growth at 10 µM (SR) was 21.3%, the inhibition of growth at 10 µM (LOX IMVI) was 3.99% and the inhibition of growth at 10 µM (SF-295) was 6.24%. It also gave an inhibition of growth at 10 µM (NCI-H322M) of 17.8%, an inhibition of growth at 10 µM (U-251) of 18.6% and an inhibition of growth at 10 µM (786-0) of 8.55%. The inhibition of growth at 10 µM (MCF7) was 61.6%, the inhibition of growth at 10 µM (HL-60(TB)) was 3.9% and the inhibition of growth at 10 µM (DU-145) was -7.09%. For the same compound, the inhibition of growth at 10 µM (PC-3) was 19.1%, the inhibition of growth at 10 µM (OVCAR-8) was -1.99% and the inhibition of growth at 10 µM (OVCAR-4) was 2.46%. The inhibition of growth at 10 µM (KM12) was 2.66%, the inhibition of growth at 10 µM (OVCAR-3) was 8.88% and the inhibition of growth at 10 µM (MDA-MB-468) was 73.3%. For the same compound, the inhibition of growth at 10 µM (NCI/ADR-RES) was -0.82%, the inhibition of growth at 10 µM (BT-549) was 1.91% and the inhibition of growth at 10 µM (CAKI-1) was 9.29%. For the same compound, the inhibition of growth at 10 µM (UACC-62) was 7.61%, the inhibition of growth at 10 µM (MDA-MB-231) was 16.9% and the inhibition of growth at 10 µM (NCI-H226) was 15.8%. It also gave an inhibition of growth at 10 µM (CCRF-CEM) of 9.29%, an inhibition of growth at 10 µM (SF-539) of 17.8% and an inhibition of growth at 10 µM (HOP-62) of -6.53%. The inhibition of growth at 10 µM (MOLT-4) was 12%, the inhibition of growth at 10 µM (Hs-578T) was -4.26% and the inhibition of growth at 10 µM (SK-OV-3) was -18.4%. The inhibition of growth at 10 µM (K562) was 11.6%, the inhibition of growth at 10 µM (HT-29) was 1.86% and the inhibition of growth at 10 µM (UO-31) was 20.5%. For the same compound, the inhibition of growth at 10 µM (SN12C) was 5.25% and the inhibition of growth at 10 µM (COLO 205) was -11.5%.

Reference: ChEMBL document CHEMBL4765227, “Hit to lead optimization of a series of N-[4-(1,3-benzothiazol-2-yl)phenyl]acetamides as monoacylglycerol lipase inhibitors with potential anticancer activity” (Eur J Med Chem, 2016)
